Measured values reported in US20060069132A1, “Azolecarboxamide herbicides” (priority 2004, published 2006).
Where two headings read alike, the source gives them in different places.

How the values were obtained:
[1] = system: pigweed; assay: Test B pre-/postemergence herbicide test; type: in vivo, Amaranthus retroflexus; settings: Amaranthus retroflexus, 336 h; for pest or weed control at 125 g/ha: 125 g ai/ha
Method in brief: (§1)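 Response was scored visually 13 to 15 days after treatment against untreated greenhouse controls, 0 meaning no effect and 100 complete control. Formulations (solvent mixture plus surfactant) went onto soil after planting, onto foliage of 1- to 4-leaf plants, and onto 2-leaf plants in a flooded paddy set including rice and barnyardgrass.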

[2] = system: wild oat; assay: Test B postemergence herbicide test; type: in vivo, Avena fatua; settings: scale 0 (no effect) to 100 (complete control)
Method in brief: (§2)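 Treated at 2-leaf (paddy) or 1–4-leaf, 2–18 cm (postemergence); greenhouse 13–15 d; visual score vs control, 0 none to 100 complete control; dash = not tested.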

[3] = system: ducksalad; assay: Test B flooded paddy test; type: in vivo, Heteranthera limosa; settings: Heteranthera limosa, 336 h, 1000 g ai/ha, visual rating, scale 0 to 100 (0 no effect, 100 complete control), 13 to 15 days, read-out: Ducksalad plant response rating
Method in brief: (§3)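 Visual ratings, 0 (no effect) to 100 (complete control), made versus controls after 13–15 d greenhouse. Paddy plants treated at 2-leaf stage; postemergence plants at 1- to 4-leaf stage, 2–18 cm tall.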

[4] = system: morningglory; assay: Test B pre-/postemergence herbicide test; type: in vivo, Ipomoea coccinea; settings: Ipomoea, 336 h; for pest or weed control at 125 g/ha: 125 g ai/ha
Method in brief: (§4)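 Visual rating, 0 (no effect) to 100 (complete control), versus untreated controls after 13–15 d in greenhouse. Pre- and postemergence applications (postemergence plants 2–18 cm, 1–4 leaves); flooded paddy arm at 2-leaf stage. Compounds in non-phytotoxic solvent plus surfactant.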

[5] = system: velvetleaf; assay: Test B pre-/postemergence herbicide test; type: in vivo, Abutilon theophrasti; settings: Abutilon theophrasti, 336 h; for pest or weed control at 125 g/ha: 125 g ai/ha
Method in brief: as §1

[6] = system: rice; assay: Test B flooded paddy test; type: in vivo, Oryza sativa; settings: Oryza sativa, 336 h, 1000 g ai/ha, visual rating, scale 0 to 100 (0 no effect, 100 complete control), 13 to 15 days, read-out: Rice plant response rating
Method in brief: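 Postemergence plants were sprayed with formulated test chemicals at 2 to 18 cm height (1- to 4-leaf stage); paddy species were grown to the 2-leaf stage. After 13 to 15 days in a greenhouse, injury was rated visually against untreated controls on a 0–100 scale (0 = no effect, 100 = complete control).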

[7] = system: giant foxtail; assay: Test B pre-/postemergence herbicide test; type: in vivo, Setaria faberi; settings: Setaria faberi, 336 h; for pest or weed control at 500 g/ha: 500 g ai/ha; for pest or weed control at 125 g/ha: 125 g ai/ha
Method in brief: as §1

[8] = system: corn; assay: Test B pre-/postemergence herbicide test; type: in vivo, Zea mays; settings: Zea mays
Method in brief: as §1

[9] = system: barnyardgrass; assay: Test B flooded paddy test; type: in vivo, Echinochloa crus-galli; settings: Echinochloa crus-galli, 336 h, 1000 g ai/ha, visual rating, scale 0 to 100 (0 no effect, 100 complete control), 13 to 15 days, read-out: Barnyardgrass plant response rating
Method in brief: as §3

[10] = system: blackgrass; assay: Test B postemergence herbicide test; type: in vivo, Alopecurus myosuroides; settings: scale 0 (no effect) to 100 (complete control)
Method in brief: as §3

[11] = system: cocklebur; assay: Test B pre-/postemergence herbicide test; type: in vivo, Xanthium strumarium; settings: Xanthium strumarium; for pest or weed control at 500 g/ha: 500 g ai/ha; for pest or weed control at 125 g/ha: 125 g ai/ha
Method in brief: as §4

[12] = system: small flower umbrella sedge; assay: Test B flooded paddy test; type: in vivo, Cyperus difformis; settings: Cyperus difformis, 336 h, 1000 g ai/ha, visual rating, scale 0 to 100 (0 no effect, 100 complete control), 13 to 15 days, read-out: Sedge, Umbrella plant response rating
Method in brief: as §3

[13] = system: wheat; assay: Test B postemergence herbicide test; type: in vivo, Triticum aestivum; settings: scale 0 (no effect) to 100 (complete control)
Method in brief: as §2

[14] = system: lambsquarters; assay: Test B pre-/postemergence herbicide test; type: in vivo, Chenopodium album; settings: Chenopodium album, 336 h; for pest or weed control at 125 g/ha: 125 g ai/ha
Method in brief: as §1

[15] = system: barnyardgrass; assay: Test B pre-/postemergence herbicide test; type: in vivo, Echinochloa crus-galli; settings: Echinochloa crus-galli; for pest or weed control at 500 g/ha: 500 g ai/ha; for pest or weed control at 125 g/ha: 125 g ai/ha
Method in brief: as §4

[16] = Postemergence, 500 g ai/ha, visual rating after 13 to 15 days

CCn1nc(C(C)(C)C)cc1C(=O)Nc1cccc(C(=O)OCCF)c1 [Compound 82, 2-fluoroethyl 3-[[[3-(1,1-dimethylethyl)-1-ethyl-1H-pyrazol-5-yl]-carbonyl]amino]benzoate]
pest or weed control at 500 g/ha ([1]; post-emergence, Postemergence, 500 g ai/ha, visual rating after 13 to 15 days, scale 0 (no effect) to 100 (complete control), read-out: Plant response rating, Pigweed): 100% | pest or weed control at 125 g/ha ([1]; post-emergence, postemergence, visual rating, scale 0 (no effect) to 100 (complete control), read-out: Pigweed plant response rating): 80% | pest or weed control at 125 g/ha ([1]; pre-emergence, preemergence, 0 to 100 scale, 0 is no effect, 100 is complete control, read-out: Plant response rating, Pigweed): 0% | pest or weed control at 125 g/ha ([2]; Avena fatua, post-emergence, 336 h, postemergence, 125 g ai/ha, visual rating, read-out: Oat, Wild plant response rating): 10% | Plant response rating, Oat, Wild [2, 16]: 30 | pest or weed control at 1000 g/ha [3]: 20% | pest or weed control at 500 g/ha ([4]; post-emergence, Postemergence, 500 g ai/ha, visual rating after 13 to 15 days, scale 0 (no effect) to 100 (complete control), read-out: Plant response rating, Morningglory): 70% | pest or weed control at 125 g/ha ([4]; post-emergence, postemergence, visual rating, scale 0 (no effect) to 100 (complete control), read-out: Morningglory plant response rating): 10% | pest or weed control at 125 g/ha ([4]; pre-emergence, preemergence, 0 to 100 scale, 0 is no effect, 100 is complete control, read-out: Plant response rating, Morningglory): 0% | pest or weed control at 500 g/ha ([5]; post-emergence, Postemergence, 500 g ai/ha, visual rating after 13 to 15 days, scale 0 (no effect) to 100 (complete control), read-out: Plant response rating, Velvetleaf): 90% | pest or weed control at 125 g/ha ([5]; post-emergence, postemergence, visual rating, scale 0 (no effect) to 100 (complete control), read-out: Velvetleaf plant response rating): 80% | pest or weed control at 125 g/ha ([5]; pre-emergence, preemergence, 0 to 100 scale, 0 is no effect, 100 is complete control, read-out: Plant response rating, Velvetleaf): 0% | plant injury at 1000 g/ha [6]: 40% | pest or weed control at 500 g/ha ([7]; post-emergence, Postemergence, visual rating after 13 to 15 days, scale 0 (no effect) to 100 (complete control), read-out: Plant response rating, Foxtail, Giant): 10% | pest or weed control at 125 g/ha ([7]; post-emergence, postemergence, visual rating, scale 0 (no effect) to 100 (complete control), read-out: Foxtail, Giant plant response rating): 10% | pest or weed control at 500 g/ha ([7]; pre-emergence, Preemergence, scale 0 to 100, read-out: Foxtail, Giant plant response rating): 0% | pest or weed control at 125 g/ha ([7]; pre-emergence, preemergence, 0 to 100 scale, 0 is no effect, 100 is complete control, read-out: Plant response rating, Foxtail, Giant): 0% | Corn plant response rating (crop injury, 0 = no effect, 100 = complete kill) at 500 g/ha ([8]; post-emergence, Postemergence, 500 g ai/ha, visual rating after 13 to 15 days, scale 0 (no effect) to 100 (complete control)): 30% | plant injury at 125 g/ha ([8]; post-emergence, postemergence, 125 g ai/ha, visual rating, scale 0 (no effect) to 100 (complete control), read-out: Corn plant response rating): 20% | plant injury at 500 g/ha ([8]; pre-emergence, Preemergence, 500 g ai/ha, scale 0 to 100, read-out: Corn plant response rating): 0% | Corn plant response rating (crop injury, 0 = no effect, 100 = complete kill) at 125 g/ha ([8]; pre-emergence, preemergence, 125 g ai/ha, 0 to 100 scale, 0 is no effect, 100 is complete control): 0% | pest or weed control at 1000 g/ha [9]: 30% | pest or weed control at 125 g/ha ([10]; Alopecurus myosuroides, post-emergence, 336 h, postemergence, 125 g ai/ha, visual rating, read-out: Blackgrass plant response rating): 0% | Plant response rating, Blackgrass [10, 16]: 10 | pest or weed control at 500 g/ha ([11]; post-emergence, Postemergence, visual rating after 13 to 15 days, scale 0 (no effect) to 100 (complete control), read-out: Plant response rating, Cocklebur): 100% | pest or weed control at 125 g/ha ([11]; post-emergence, postemergence, visual rating, scale 0 (no effect) to 100 (complete control), read-out: Cocklebur plant response rating): 80% | pest or weed control at 500 g/ha ([11]; pre-emergence, Preemergence, scale 0 to 100, read-out: Cocklebur plant response rating): 0% | pest or weed control at 125 g/ha ([11]; pre-emergence, preemergence, 0 to 100 scale, 0 is no effect, 100 is complete control, read-out: Plant response rating, Cocklebur): 0% | pest or weed control at 1000 g/ha [12]: 40% | Plant response rating, Wheat [13, 16]: 20 | plant injury at 125 g/ha ([13]; Triticum aestivum, post-emergence, 336 h, postemergence, 125 g ai/ha, visual rating, read-out: Wheat plant response rating): 20% | pest or weed control at 500 g/ha ([14]; post-emergence, Postemergence, 500 g ai/ha, visual rating after 13 to 15 days, scale 0 (no effect) to 100 (complete control), read-out: Plant response rating, Lambsquarters): 50% | pest or weed control at 125 g/ha ([14]; post-emergence, postemergence, visual rating, scale 0 (no effect) to 100 (complete control), read-out: Lambsquarters plant response rating): 20% | pest or weed control at 125 g/ha ([14]; pre-emergence, preemergence, 0 to 100 scale, 0 is no effect, 100 is complete control, read-out: Plant response rating, Lambsquarters): 0% | pest or weed control at 500 g/ha ([15]; post-emergence, Postemergence, visual rating after 13 to 15 days, scale 0 (no effect) to 100 (complete control), read-out: Plant response rating, Barnyardgrass): 20% | pest or weed control at 125 g/ha ([15]; post-emergence, postemergence, visual rating, scale 0 (no effect) to 100 (complete control), read-out: Barnyardgrass plant response rating): 10% | pest or weed control at 500 g/ha ([15]; pre-emergence, Preemergence, scale 0 to 100, read-out: Barnyardgrass plant response rating): 0% | pest or weed control at 125 g/ha ([15]; pre-emergence, preemergence, 0 to 100 scale, 0 is no effect, 100 is complete control, read-out: Plant response rating, Barnyardgrass): 0%
